How the values were obtained:
[1] = system: Several cancer cell lines; experiment: Effect on cell cycle progression, summary over the cell lines of Table 5; assay type: cell-based; details: summary over the cell lines of Table 5, 17 hours
Procedure: (§1) Several cancer cell lines were cultured on a 12 well plate (3×10^4 cells/well), and treated with DMSO or WCI-1031, an indole derivative of the present invention, for 17 hours, and then added with a propidium iodine dye to stain the cellular DNA, and subjected to measurement using FACS. The concentrations at which cells gathered in the G2/M phase and numbers of the cells represented as percentages were shown (Table 5).

[2] = system: human-derived skin cancer cell line (A431); experiment: Anti-cancer effect in human-derived skin cancer cell (A431) implantation nude mouse model; assay type: in vivo, BALB/C female nude mouse; details: for tumor growth inhibition: days 0-23, last day (day 23), vs solvent control; for tumor weight reduction: excised A431 tumors weighed
Procedure: The human cancer cell line A431 which was kept frozen in liquid nitrogen was thawed and cell culture was conducted. Cells were cultured in a CO2 incubator (Forma, USA) at 37° C. and 5% CO2 for an appropriate period of time. On the last day of culture, all cancer cells were collected and counted and the cell concentration was adjusted to 1×10^7 cells/ml using serum free media. The culture solution thus prepared was injected subcutaneously in the axillary region between the scapula and chest wall in an amount of 0.3 ml per BALB/C female nude mouse (5 weeks old, Nara Biotech) (3×10^6 cells/mouse). […] To examine the toxicity levels of the repeated intraperitoneal administration of WCI-1031 to A431 cancer cell implantation nude mice, general symptoms and weight changes of the animals were observed during the administration period. […] On day 23 after the start of the drug administration, blood was taken from the mice through ophthalmic veins 2 hours after the last administration, and the mice were sacrificed using CO2 gas. Then the mice were photographed and the tumors was isolated and weighed in a chemical balance. After taking photographs, each tumor was divided in half, and the resultant tumors were fixed to liquid nitrogen and formalin, respectively.

PC3 = experiment: Anti-proliferative activity in other cancer cell lines (MTT assay); assay type: cell-based; details: Homo sapiens, PC-3, 96 h, PC3 (prostate), 4 days, mean of three assays
Procedure: (§2) HeLa cells (ATCC, USA), which are a human cervical cancer cell line, were dispensed into a 96-well plate at 2×10^3 cells/well, and the cells were treated with DMSO or the indole derivatives of the present invention, and then allowed to grow for 4 days. And then, MTT (3-(4,5-Dimethylthiazol-2-yl)-2,5-diphenyltetrazolium bromide) reagent was added to the wells at 10 μl/well. After 2 hours, the absorbance was measured at “OD 450” and statistical values were obtained using the plizm6 program. The data represent mean values of the results of two repeated assays (Table 1).
(§3) Specifically, various cancer cell lines were cultured on a microtiter plate (1-3×10^3 cells/well), and the cells were treated with the indole derivative of the present invention and cultured for 4 days. Cytotoxicity was examined by the MTT assay by the same method as in Experimental Example 1-1, and the IC50 was obtained by the log-dose response curve. The data represent mean values of the results of three repeated assays (Table 2).

HeLa [3] = experiment: as above; assay type: cell-based; details: Homo sapiens, 96 h, HeLa (uterine cervix), 4 days, mean of three assays
Procedure: as §2, §3

NCIH-1299 = experiment: as above; assay type: cell-based; details: Homo sapiens, NCI-H1299, 96 h, NCIH-1299 (lung), 4 days, mean of three assays
Procedure: as §2, §3

A 549 = experiment: as above; assay type: cell-based; details: Homo sapiens, A549, 96 h, A 549 (lung), 4 days, mean of three assays
Procedure: as §2, §3

A431 [4] = experiment: as above; assay type: cell-based; details: Homo sapiens, A-431, 96 h, A431 (skin), 4 days, mean of three assays
Procedure: as §2, §3

HepG2 = experiment: as above; assay type: cell-based; details: Homo sapiens, 96 h, HepG2 (liver), 4 days, mean of three assays
Procedure: as §2, §3

NCIH-460 = experiment: as above; assay type: cell-based; details: Homo sapiens, NCI-H460, 96 h, NCIH-460 (lung), 4 days, mean of three assays
Procedure: as §2, §3

HeLa [5] = experiment: Effect on cell cycle progression (propidium iodine, FACS); assay type: cell-based, human; details: 17 hours
Procedure: as §1

A431 [6] = experiment: as above; assay type: cell-based, human; details: A431, 17 hours
Procedure: as §1

MCF7 = experiment: Anti-proliferative activity, multiple drug resistance study (MTT assay), parent line; assay type: cell-based; details: Homo sapiens, 96 h, 4 days, mean of three assays
Procedure: (§4) HeLa cells (ATCC, USA), which are a human cervical cancer cell line, were dispensed into a 96-well plate at 2×10^3 cells/well, and the cells were treated with DMSO or the indole derivatives of the present invention, and then allowed to grow for 4 days. And then, MTT (3-(4,5-Dimethylthiazol-2-yl)-2,5-diphenyltetrazolium bromide) reagent was added to the wells at 10 μl/well. After 2 hours, the absorbance was measured at “OD 450” and statistical values were obtained using the plizm6 program. The data represent mean values of the results of two repeated assays (Table 1). Specifically, K562 and MCF7 (Bio Evaluation Center, Korea Research Institute of Bioscience and Biotechnology, Korea), and K562/ADR and MCF7/ADR (Bio Evaluation Center, Korea Research Institute of Bioscience and Biotechnology, Korea), which are multiple drug-resistant cell lines of the above mentioned cell lines, respectively, were cultured on a microtiter plate at 1-3×10^3 cells/well.

K562 = experiment: as above; assay type: cell-based; details: Homo sapiens, 96 h, 4 days, mean of three assays
Procedure: as §4

[7] = Maximum absorbable dose in human (Table 6); details: for MAD (maximum absorbable dose in human): SIWV 250 ml, SITT 270

IC50 (PC3): 549 nM
IC50 (HeLa [3]): 297 nM
IC50 (NCIH-1299): 376 nM
IC50 (A 549): 495 nM
IC50 (A431 [4]): 186 nM
IC50 (HepG2): 2400 nM
IC50 (NCIH-460): 671 nM
IC50 (MCF7): 1320 nM
IC50 (K562): 532 nM
Ka (intestinal absorption rate constant) ([7]; pH 6.5): 0.03 min⁻¹
MAD (maximum absorbable dose in human) ([7]; pH 6.5): 1.8 mg
Ka (intestinal absorption rate constant) ([7]; pH 7.4): 0.03 min⁻¹
MAD (maximum absorbable dose in human) ([7]; pH 7.4): 0.8 mg
SMILES: COC(=O)Cn1c(C)c(/C=N/NC(=O)c2cc3c(ccc4ccccc43)o2)c2ccccc21 [WCI-1031, methyl (E)-2-(2-methyl-3-((2-(naphtho[2,1-b]furan-2-carbonyl) hydrazono)methyl)-1H-indole-1-yl)acetate]
numbers of the cells in the G2/M phase [1]: ≥ 50%
tumor growth inhibition ([2]; 10 mg/kg): 9.3%
tumor weight reduction ([2]; 10 mg/kg): 10.7%
tumor growth inhibition ([2]; 20 mg/kg, p<0.001): 37.2%
tumor weight reduction ([2]; 20 mg/kg, p<0.001): 38.0%
effect μM (concentration at which cells gathered in the G2/M phase) (HeLa [5]): 0.5 µM
% of G2/M (HeLa [5]; at the effect concentration): 82.36%
effect μM (concentration at which cells gathered in the G2/M phase) (A431 [6]): 0.5 µM
% of G2/M (A431 [6]; at the effect concentration): 66.32%
